Measured values: ChEMBL document CHEMBL2034873, “Discovery of a Novel Series of CHK1 Kinase Inhibitors with a Distinctive Hinge Binding Mode” (ACS Med Chem Lett, 2012)

Experiments:
[1] = molecular target: T1, Serine/threonine-protein kinase Chk1 (Homo sapiens, UniProt O14757); experiment: Inhibition of recombinant His-tagged CHK1 using biotin-RSGLYRSPSMPENLNRPR as substrate after 1 hr by scintillation proximity assay
T1 sequence (O14757 whole entry): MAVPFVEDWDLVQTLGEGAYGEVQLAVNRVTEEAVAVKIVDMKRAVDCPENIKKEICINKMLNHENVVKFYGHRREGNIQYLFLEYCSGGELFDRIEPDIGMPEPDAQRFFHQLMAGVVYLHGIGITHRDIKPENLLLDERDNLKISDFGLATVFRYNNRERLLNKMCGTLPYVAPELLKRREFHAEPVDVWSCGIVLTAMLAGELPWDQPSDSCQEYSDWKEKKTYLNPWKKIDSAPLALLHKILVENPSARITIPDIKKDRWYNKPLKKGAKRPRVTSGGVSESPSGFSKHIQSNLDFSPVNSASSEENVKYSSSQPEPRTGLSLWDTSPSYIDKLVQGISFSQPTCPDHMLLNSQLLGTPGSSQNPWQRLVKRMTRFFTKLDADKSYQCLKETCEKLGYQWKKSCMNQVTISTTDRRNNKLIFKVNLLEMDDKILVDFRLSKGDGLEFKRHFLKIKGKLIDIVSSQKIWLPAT

[2] = Selectivity ratio of IC50 for cyclinE/CDK2 to IC50 for CHK1
[3] = molecular target: T1, Serine/threonine-protein kinase Chk1; experiment: Inhibition of CHK1 in human U2OS cells pretreated with hydroxyurea assessed as gamma-H2AX level after 2 hrs by immunofluorescence assay; assay type: cell-based
[4] = molecular target: Cyclin-dependent kinase 2/cyclin E1 (Homo sapiens, UniProt P24941); experiment: Inhibition of Cyclin E/CDK2 expressed in Sf9 cells using [33gamma]ATP after 1 hr by liquid scintillation counter
[5] = molecular target: T1, Serine/threonine-protein kinase Chk1; experiment: Binding affinity to CHK1 by affinity-selection-mass […] assay

## O=C(Nc1ccccc1N1CCNCC1)c1csc(-c2ccc3c(c2)OCCCO3)n1
[1]
  IC50: 190 nM

## CC(=O)N1CCN(c2ccccc2NC(=O)c2csc(-c3ccc4c(c3)CCO4)n2)CC1
[2]
  Ratio IC50: 0.34
[1]
  IC50: 4100 nM

## O=C(Nc1ccccc1N1CCNCC1)c1csc(-c2ccc3[nH]ccc3c2)n1
[2]
  Ratio IC50: 960
[3]
  EC50: 3500 nM
[1]
  IC50: 4 nM

## C[C@H]1CN(c2ccccc2NC(=O)c2csc(-c3ccc4c(c3)CCO4)n2)CCN1
[2]
  Ratio IC50: 3
[1]
  IC50: 86 nM

## O=C(Nc1ccccc1N1CCNCC1)c1csc(-c2cc[nH]n2)n1
[2]
  Ratio IC50: 33
[1]
  IC50: 110 nM

## Cc1nc(-c2ccc3c(c2)CCO3)sc1C(=O)Nc1ccccc1N1CCNCC1
[1]
  IC50: 21000 nM

## O=C(Nc1ccccc1N1CCNCC1)c1csc(-c2cccnc2)n1
[2]
  Ratio IC50: 0.8
[1]
  IC50: 1400 nM

## O=C(Nc1ccccc1N1CCNCC1)c1csc(-c2ccccc2)n1
[2]
  Ratio IC50: 12
[1]
  IC50: 87 nM

## O=C(Nc1ccccc1C1=CCNCC1)c1csc(-c2ccc3c(c2)CCO3)n1
[2]
  Ratio IC50: 1.7
[1]
  IC50: 760 nM

## C[C@@H]1CN(c2ccccc2NC(=O)c2csc(-c3ccc4c(c3)CCO4)n2)CCN1
[2]
  Ratio IC50: 2
[1]
  IC50: 120 nM

## O=C(Nc1ccccc1N1CCNCC1)c1csc(-c2cc[nH]c2)n1
[1]
  IC50: 100 nM

## CN(C)c1ccc(-c2nc(C(=O)Nc3ccccc3N3CCNCC3)cs2)cc1
[2]
  Ratio IC50: 73
[1]
  IC50: 19 nM

## O=C(Nc1ccccc1N1CCNCC1)c1csc(-c2csc3ccccc23)n1
[2]
  Ratio IC50: 6
[1]
  IC50: 69 nM

## COc1ccc(-c2nc(C(=O)Nc3ccccc3N3CCNCC3)cs2)cc1
[2]
  Ratio IC50: 5
[1]
  IC50: 72 nM

## O=C(Nc1ccccc1N1CCNCC1)c1csc(C#Cc2ccccc2)n1
[2]
  Ratio IC50: 32
[1]
  IC50: 440 nM

## CN1CCN(c2ccccc2NC(=O)c2csc(-c3ccc4c(c3)CCO4)n2)CC1
[2]
  Ratio IC50: 0.16
[1]
  IC50: 2000 nM

## CC#Cc1nc(C(=O)Nc2ccccc2N2CCNCC2)cs1
[1]
  IC50: 3900 nM

## O=C1CN(c2ccccc2NC(=O)c2csc(-c3ccc4c(c3)CCO4)n2)CCN1
[1]
  IC50: > 50000 nM

## O=C(Nc1ccccc1N1CCNCC1=O)c1csc(-c2ccc3c(c2)CCO3)n1
[1]
  IC50: > 50000 nM

## O=C(Nc1ccccc1N1CCNCC1)c1csc(-c2ccc3c(c2)OCO3)n1
[2]
  Ratio IC50: 18
[1]
  IC50: 170 nM

## O=C(Nc1ccccc1N1CCNCC1)c1csc(-c2cc3ccccc3s2)n1
[2]
  Ratio IC50: 33
[3]
  EC50: 1500 nM
[1]
  IC50: 7 nM

## O=C(Nc1ccccc1N1CCNCC1)c1csc(-c2ccc3occc3c2)n1
[2]
  Ratio IC50: 27
[3]
  EC50: 2000 nM
[1]
  IC50: 19 nM

## O=C(Nc1ccccc1N1CCNCC1)c1csc(-c2ccc(-c3cccs3)s2)n1
[1]
  IC50: 130 nM

## O=C(Nc1ccccc1N1CCNCC1)c1cc(-c2ccc3c(c2)OCO3)on1
[1]
  IC50: 3400 nM

## COc1ccc(-c2nc(C(=O)Nc3ccccc3N3CCNCC3)cs2)cc1OC
[2]
  Ratio IC50: 6.6
[1]
  IC50: 520 nM

## CN(C)Cc1ccc(-c2nc(C(=O)Nc3ccccc3N3CCNCC3)cs2)cc1
[1]
  IC50: > 50000 nM

## CC1CNCCN1c1ccccc1NC(=O)c1csc(-c2ccc3c(c2)CCO3)n1 (stereo unspecified)
[1]
  IC50: 280 nM

## COc1ccc(-c2nc(C(=O)Nc3ccccc3N3CCNCC3)cs2)cc1C
[2]
  Ratio IC50: 12
[1]
  IC50: 580 nM

## O=C(Nc1ccccc1N1CCNCC1)c1csc(-c2ccc(Oc3ccccc3)cc2)n1
[2]
  Ratio IC50: 3600
[3]
  EC50: > 50000 nM
[1]
  IC50: 5 nM

## O=C(Nc1ccccc1N1CCNCC1)c1csc(-c2ccc[nH]2)n1
[1]
  IC50: 1200 nM

## O=C(Nc1ccccc1N1CCNCC1)c1csc(-c2ccc3c(c2)CCO3)n1
[4]
  IC50: 210 nM
[2]
  Ratio IC50: 2.7
[3]
  EC50: 10000 nM
[5]
  Kd: < 100 nM
[1]
  IC50: 75 nM

## O=C(Nc1ccccc1N1CCNCC1)c1csc(-c2cncnc2)n1
[1]
  IC50: 13000 nM

## O=C(Nc1ccccc1N1CCOCC1)c1csc(-c2ccc3c(c2)CCO3)n1
[1]
  IC50: > 50000 nM

## O=C(Nc1ccccc1N1CCNCC1)c1csc(-c2cccs2)n1
[2]
  Ratio IC50: 16
[1]
  IC50: 36 nM

## O=C(Nc1ccccc1N1CCNCC1)c1nc(-c2ccc3c(c2)CCO3)cs1
[1]
  IC50: > 50000 nM

## O=C(Nc1ccccc1C1CCNCC1)c1csc(-c2ccc3c(c2)CCO3)n1
[2]
  Ratio IC50: 1.8
[1]
  IC50: 4500 nM

## O=C(Nc1ccccc1N1CCNCC1)c1csc(-c2ccncc2)n1
[2]
  Ratio IC50: 0.54
[1]
  IC50: 1500 nM

## O=C(Nc1ccccc1N1CCNCC1)c1csc(-c2ccc3sccc3c2)n1
[2]
  Ratio IC50: 380
[3]
  EC50: 2500 nM
[1]
  IC50: 5 nM

## O=C(Nc1ccccc1N1CCNCC1)c1csc(-c2ccc(-c3ccccc3)s2)n1
[1]
  IC50: 89 nM

## O=C(Nc1ccccc1N1CCNCC1)c1csc(-c2cn[nH]c2)n1
[2]
  Ratio IC50: 0.67
[1]
  IC50: 190 nM

## N#Cc1ccc(-c2nc(C(=O)Nc3ccccc3N3CCNCC3)cs2)cn1
[1]
  IC50: 5200 nM

## O=C(Nc1ccccc1N1CCNCC1)c1csc(-c2ccsc2)n1
[2]
  Ratio IC50: 5
[1]
  IC50: 210 nM
